According to US11066396B2 (priority 2016, dated 2021):

Experiments:
HDAC8 = HDAC8 (Homo sapiens (Human), UniProt Q9BY41); conditions: read-out: HDAC8 IC50
HDAC5 = HDAC5 (Homo sapiens (Human), UniProt Q9UQL6); conditions: read-out: HDAC5 IC50
HDAC1 = HDAC1 (Homo sapiens (Human), UniProt Q13547); conditions: read-out: HDAC1 IC50
Chain of HDAC1 (Q13547 whole entry): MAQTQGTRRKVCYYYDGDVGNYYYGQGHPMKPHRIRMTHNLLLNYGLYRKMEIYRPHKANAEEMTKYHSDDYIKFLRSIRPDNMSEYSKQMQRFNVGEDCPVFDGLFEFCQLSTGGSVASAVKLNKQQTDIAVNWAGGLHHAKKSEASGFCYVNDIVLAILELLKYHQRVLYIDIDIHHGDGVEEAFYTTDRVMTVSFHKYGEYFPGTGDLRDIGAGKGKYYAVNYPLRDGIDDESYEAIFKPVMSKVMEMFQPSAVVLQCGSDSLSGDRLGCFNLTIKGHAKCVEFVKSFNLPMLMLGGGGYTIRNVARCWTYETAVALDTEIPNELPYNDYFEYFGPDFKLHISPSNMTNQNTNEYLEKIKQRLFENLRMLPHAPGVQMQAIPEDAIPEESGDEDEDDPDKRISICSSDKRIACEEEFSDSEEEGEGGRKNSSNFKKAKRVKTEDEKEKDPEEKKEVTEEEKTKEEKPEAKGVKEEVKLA

Chain of HDAC8 (Q9BY41 whole entry): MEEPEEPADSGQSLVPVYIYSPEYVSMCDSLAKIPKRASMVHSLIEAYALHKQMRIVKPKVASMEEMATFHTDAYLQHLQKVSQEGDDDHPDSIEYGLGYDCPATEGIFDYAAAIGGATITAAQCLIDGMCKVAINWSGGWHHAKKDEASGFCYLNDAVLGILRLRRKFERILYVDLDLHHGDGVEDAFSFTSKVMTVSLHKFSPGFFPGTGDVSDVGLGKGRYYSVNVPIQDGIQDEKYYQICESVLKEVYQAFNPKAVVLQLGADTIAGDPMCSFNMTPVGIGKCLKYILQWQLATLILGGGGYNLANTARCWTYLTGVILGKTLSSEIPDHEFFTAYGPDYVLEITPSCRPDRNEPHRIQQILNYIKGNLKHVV
Chain of HDAC5 (Q9UQL6 656-1122): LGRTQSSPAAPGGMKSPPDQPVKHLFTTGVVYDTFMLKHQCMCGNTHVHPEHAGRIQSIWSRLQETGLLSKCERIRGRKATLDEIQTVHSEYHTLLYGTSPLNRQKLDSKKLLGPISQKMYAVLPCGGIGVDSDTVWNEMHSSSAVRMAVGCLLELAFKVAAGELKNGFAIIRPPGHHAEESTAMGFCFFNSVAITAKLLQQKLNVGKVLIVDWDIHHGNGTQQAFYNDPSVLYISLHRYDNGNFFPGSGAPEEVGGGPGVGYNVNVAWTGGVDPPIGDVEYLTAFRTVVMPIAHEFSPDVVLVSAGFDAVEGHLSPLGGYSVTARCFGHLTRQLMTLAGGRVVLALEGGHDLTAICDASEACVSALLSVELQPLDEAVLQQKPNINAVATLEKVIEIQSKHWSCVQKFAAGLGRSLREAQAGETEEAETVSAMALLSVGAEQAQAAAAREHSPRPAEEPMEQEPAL

Compound | IC50 (HDAC8) [nM] | IC50 (HDAC5) [nM] | IC50 (HDAC1) [nM]
O=C(OCCOCCCl)[C@@H]1CCC(=O)N1c1ccc(-c2noc(C(F)(F)F)n2)c(F)c1 [Example 197, 2-(2-chloroethoxy)ethyl 1-{3-fluoro-4-[5-(trifluoromethyl)-1,2,4-oxadiazol-3-yl]phenyl}-5-oxo-L-prolinate] | 110 | 50 | 1200
COC(=O)N1CCC(C(=O)N(Cc2ccc(-c3noc(C(F)(F)F)n3)cn2)c2cccc(C(F)(F)F)c2)CC1 [Example 198, methyl 4-{({5-[5-(trifluoromethyl)-1,2,4-oxadiazol-3-yl]pyridin-2-yl}methyl)[3-(trifluoromethyl)phenyl]carbamoyl}piperidine-1-carboxylate] | 1300 | 650 | 480
FC(F)(F)c1nc(-c2ccnc(OCc3nc4ccccc4[nH]3)c2)no1 [Example 200, 2-[({4-[5-(trifluoromethyl)-1,2,4-oxadiazol-3-yl]pyridin-2-yl}oxy)methyl]-1H-benzimidazole] | 970 | 460 | 450
O=C(C1CCS(=O)(=O)CC1)N(Cc1ccc(-c2noc(C(F)(F)F)n2)cn1)c1ccccc1C(F)(F)F [Example 201, 1,1-dioxo-N-({5-[5-(trifluoromethyl)-1,2,4-oxadiazol-3-yl]pyridin-2-yl}methyl)-N-[2-(trifluoromethyl)phenyl]-llambda~6~-thiane-4-carboxamide] | 9200 | 1400 | 4000
Cc1ccncc1COc1ccc(-c2noc(C(F)(F)F)n2)cn1 [Example 202, 2-[(4-methylpyridin-3-yl)methoxy]-5-[5-(trifluoromethyl)-1,2,4-oxadiazol-3-yl]pyridine] | 900 | 730 | 2200
Fc1cc(COc2cccc3[nH]nnc23)ccc1-c1noc(C(F)(F)F)n1 [Example 227, 4-({3-fluoro-4-[5-(trifluoromethyl)-1,2,4-oxadiazol-3-yl]phenyl}methoxy)-1H-benzotriazole] | 730 | 65 | 1500
Fc1cc(COc2nncc3ccccc23)ccc1-c1noc(C(F)(F)F)n1 [Example 228, 1-({3-fluoro-4-[5-(trifluoromethyl)-1,2,4-oxadiazol-3-yl]phenyl}methoxy)phthalazine] | 2000 | 140 | 4300
Cn1nccc1OCc1ccc(-c2noc(C(F)(F)F)n2)c(F)c1 [Example 229, 3-(2-fluoro-4-{[(1-methyl-1H-pyrazol-5-yl)oxy]methyl}phenyl)-5-(trifluoromethyl)-1,2,4-oxadiazole] | 4800 | 140 | 3700
Fc1cnc(OCc2ccc(-c3noc(C(F)(F)F)n3)c(F)c2)nc1 [Example 230, 5-fluoro-2-({3-fluoro-4-[5-(trifluoromethyl)-1,2,4-oxadiazol-3-yl]phenyl}methoxy)pyrimidine] | 540 | 200 | 8500
O=C1NCCc2c(OCc3ccc(-c4noc(C(F)(F)F)n4)c(F)c3)cccc21 [Example 231, 5-({3-fluoro-4-[5-(trifluoromethyl)-1,2,4-oxadiazol-3-yl]phenyl}methoxy)-3,4-dihydroisoquinolin-1(2H)-one] | 45000 | 110 | 6900
Fc1cc(COc2cc[nH]n2)ccc1-c1noc(C(F)(F)F)n1 [Example 232, 3-(2-fluoro-4-{[(1H-pyrazol-3-yl)oxy]methyl}phenyl)-5-(trifluoromethyl)-1,2,4-oxadiazole] | 1300 | 67 | 3000
Cn1cccc(OCc2ccc(-c3noc(C(F)(F)F)n3)c(F)c2)c1=O [Example 233, 3-({3-fluoro-4-[5-(trifluoromethyl)-1,2,4-oxadiazol-3-yl]phenyl}methoxy)-1-methylpyridin-2(1H)-one] | 2200 | 170 | 1600
Fc1cc(COc2ccc3cnccc3n2)ccc1-c1noc(C(F)(F)F)n1 [Example 234, 2-({3-fluoro-4-[5-(trifluoromethyl)-1,2,4-oxadiazol-3-yl]phenyl}methoxy)-1,6-naphthyridine] | 640 | 8.4 | 370
Fc1cc(COc2cncnc2)ccc1-c1noc(C(F)(F)F)n1 [Example 236, 5-({3-fluoro-4-[5-(trifluoromethyl)-1,2,4-oxadiazol-3-yl]phenyl}methoxy)pyrimidine] | 2100 | 42 | 3100
Cc1cc(OCc2ccc(-c3noc(C(F)(F)F)n3)c(F)c2)cc(C)n1 [Example 237, 4-({3-fluoro-4-[5-(trifluoromethyl)-1,2,4-oxadiazol-3-yl]phenyl}methoxy)-2,6-dimethylpyridine] | 5300 | 230 | 1800
COc1cnnc(OCc2ccc(-c3noc(C(F)(F)F)n3)c(F)c2)c1 [Example 239, 3-({3-fluoro-4-[5-(trifluoromethyl)-1,2,4-oxadiazol-3-yl]phenyl}methoxy)-5-methoxypyridazine] | 2400 | 190 | 5900

Compound | IC50 (HDAC8) [nM] | IC50 (HDAC5) [nM] | IC50 (HDAC1) [nM]
Fc1cc(COc2ccc3ncnn3c2)ccc1-c1noc(C(F)(F)F)n1 [Example 240, 6-({3-fluoro-4-[5-(trifluoromethyl)-1,2,4-oxadiazol-3-yl]phenyl}methoxy)[1,2,4]triazolo[1,5-a]pyridine] | 11000 | 78 | 1500
Cc1nccc(OCc2ccc(-c3noc(C(F)(F)F)n3)c(F)c2)n1 [Example 241, 4-({3-fluoro-4-[5-(trifluoromethyl)-1,2,4-oxadiazol-3-yl]phenyl}methoxy)-2-methylpyrimidine] | 3000 | 48 | 3200
Fc1cc(COc2cc(C(F)F)ncn2)ccc1-c1noc(C(F)(F)F)n1 [Example 242, 4-(difluoromethyl)-6-({3-fluoro-4-[5-(trifluoromethyl)-1,2,4-oxadiazol-3-yl]phenyl}methoxy)pyrimidine] | 1700 | 110 | 2900
COc1ccc(OCc2ccc(-c3noc(C(F)(F)F)n3)c(F)c2)nc1 [Example 243, 2-({3-fluoro-4-[5-(trifluoromethyl)-1,2,4-oxadiazol-3-yl]phenyl}methoxy)-5-methoxypyridine] | 1600 | 50 | 1500
Cc1cncnc1OCc1ccc(-c2noc(C(F)(F)F)n2)c(F)c1 [Example 244, 4-({3-fluoro-4-[5-(trifluoromethyl)-1,2,4-oxadiazol-3-yl]phenyl}methoxy)-5-methylpyrimidine] | 1900 | 130 | 3300
Fc1cc(COc2cnc3c(c2)COC3)ccc1-c1noc(C(F)(F)F)n1 [Example 245, 3-({3-fluoro-4-[5-(trifluoromethyl)-1,2,4-oxadiazol-3-yl]phenyl}methoxy)-5,7-dihydrofuro[3,4-b]pyridine] | 3400 | 180 | 1500
COc1ncccc1OCc1ccc(-c2noc(C(F)(F)F)n2)c(F)c1 [Example 246, 3-({3-fluoro-4-[5-(trifluoromethyl)-1,2,4-oxadiazol-3-yl]phenyl}methoxy)-2-methoxypyridine] | 45000 | 120 | 2400
Cc1nc(OCc2ccc(-c3noc(C(F)(F)F)n3)c(F)c2)c2cnn(C)c2n1 [Example 248, 4-({3-fluoro-4-[5-(trifluoromethyl)-1,2,4-oxadiazol-3-yl]phenyl}methoxy)-1,6-dimethyl-1H-pyrazolo[3,4-d]pyrimidine] | 2600 | 59 | 2600
Fc1cc(COc2[nH]nc3c2COCC3)ccc1-c1noc(C(F)(F)F)n1 [Example 249, 3-({3-fluoro-4-[5-(trifluoromethyl)-1,2,4-oxadiazol-3-yl]phenyl}methoxy)-2,4,6,7-tetrahydropyrano[4,3-c]pyrazole] | 2300 | 74 | 3100
Fc1ccccc1OCc1ccc(-c2noc(C(F)(F)F)n2)cn1 [Example 251, 2-[(2-fluorophenoxy)methyl]-5-[5-(trifluoromethyl)-1,2,4-oxadiazol-3-yl]pyridine] | 3500 | 190 | 1200
Nc1cccnc1COCc1ccc(-c2noc(C(F)(F)F)n2)c(F)c1 [Example 252, 2-[({3-fluoro-4-[5-(trifluoromethyl)-1,2,4-oxadiazol-3-yl]phenyl}methoxy)methyl]pyridin-3-amine] | 4500 | 120 | 2600
Cc1ccc(NCc2ccc(-c3noc(C(F)(F)F)n3)c(F)c2)cn1 [Example 253, N-({3-fluoro-4-[5-(trifluoromethyl)-1,2,4-oxadiazol-3-yl]phenyl}methyl)-6-methylpyridin-3-amine] | 3900 | 64 | 1700
Fc1cc(CNc2ccc3ccncc3c2)ccc1-c1noc(C(F)(F)F)n1 [Example 254, N-({3-fluoro-4-[5-(trifluoromethyl)-1,2,4-oxadiazol-3-yl]phenyl}methyl)isoquinolin-7-amine] | 45000 | 140 | 1600
Cn1cnc2cc(COc3nccc(-c4noc(C(F)(F)F)n4)c3Cl)ccc21 [Example 255, 5-[({3-chloro-4-[5-(trifluoromethyl)-1,2,4-oxadiazol-3-yl]pyridin-2-yl}oxy)methyl]-1-methyl-1H-benzimidazole] | 1600 | 380 | 1700
CN(C(=O)[C@@H]1CCC(=O)N1c1ccc(-c2noc(C(F)(F)F)n2)c(F)c1)C(C)(C)C [Example 340, N-tert-butyl-1-{3-fluoro-4-[5-(trifluoromethyl)-1,2,4-oxadiazol-3-yl]phenyl}-N-methyl-5-oxo-L-prolinamide] | 27000 | 1800 | 31000
